# Key:
# [1] = test system: encephalomyocarditis virus; experiment: Antiviral (interferon-inducing) activity in culture of Girardi Heart human epithelial cell line; assay type: cell-based; details: for Antiviral efficacy (minimal compound concentration protecting 50% of the cells from death) / Titre of induced interferon (inverse to the maximal dilution protecting 50% of the cells): Girardi Heart epithelial cells, 100 LD50 of encephalomyocarditis virus
# Method: (§1) In this methodology in vitro, we pretreated different types of cells with the studied peptides, and then the cells were infected with a dose of 100 LD50 of encephalomyocarditis virus. 24 hours after the infection the cytopathic effect of the virus was assessed in order to evaluate protective activity of the tested compound if the latter has the ability to bring the cells to a state, resistant to the virus, which is deadly for cells.
# (§2) The lower is the concentration which protects 50% of cells from death due to the infection at a dose of 100 LD50 of encephalomyocarditis virus, the higher is antiviral (interferon-inducing) activity of the tested compound.
# (§3) The peptides were dissolved in distilled water, and then sterilized by passing through filters with pore size 0.2 μm to obtain the stock solutions of 1-2 mg/ml. On day 0, cells were seeded in the wells of 96-well plate in complete culture medium with cell density of 200 thousands of cells in 1 ml. On day 1, serial dilutions of each tested sample were prepared (24 serial dilutions in increments of 2) in triplets in the wells of the 96-well plate. On day 3, all the cultures were infected with a dose of 100 TCID50/ml of encephalomyocarditis virus strain “Columbia SK-Col-SK”. Finally, on day 4, cytopathic effect of the virus was assessed by using Leitz inverted microscope in the presence of different concentrations of the tested peptide or in the cultures without peptide (control).
# (§4) Antiviral effect of the drug product was assessed based on minimal concentration thereof protecting 50% of the cells from death caused by encephalomyocarditis virus at a dose of 100 TCID50/ml. Interferon titre (U/ml) was calculated as a value, inverse to the maximal dilution of the drug product, which protected 50% of the cells from death caused by encephalomyocarditis virus at a dose of 100 TCID50/ml.
# (§5) The culture of Girardi Heart human epithelial cell line was obtained from Research Institute of Virology named after Ivanovskiy (Moscow). Complete medium for cells culturing, peptides and compositions thereof, as well as assessment method for their antiviral (interferon-inducing) activity were the same as described in the Example 5.
# [2] = test system: encephalomyocarditis virus; experiment: Antiviral (interferon-inducing) activity in culture of HELA human cervical carcinoma cell line; assay type: cell-based; details: 100 LD50 of encephalomyocarditis virus
# Method: as §1, §2, §3, §4
# as §5, with “HELA” for “The culture of Girardi Heart”, “cervical carcinoma” for “epithelial”
# [3] = test system: encephalomyocarditis virus; experiment: Antiviral (interferon-inducing) activity in culture of PLC/PRF/5 (Alexander) human hepatoma cell line; assay type: cell-based, encephalomyocarditis virus strain Columbia SK-Col-SK; details: for Antiviral efficacy (minimal compound concentration protecting 50% of the cells from death) / Titre of induced interferon (inverse to the maximal dilution protecting 50% of the cells): PLC/PRF/5 (Alexander) human hepatoma cells, 100 LD50 of encephalomyocarditis virus
# Method: as §1, §2
# PLC/PRF/5 (Alexander) human hepatoma cell line was obtained from Research Institute of Virology named after Ivanovskiy (Moscow). Complete medium for cells culturing was prepared on the basis of MEM Eagle medium supplemented with 10% fetal calf serum (FCS), L-glutamine (300 μg/ml), and penicillin (100 U/ml).
# as §3, §4
# [4] = test system: MAPK/ERK signaling pathway; experiment: Activation of MAPK/ERK signaling pathway in BALB/c mouse fibroblasts (immune blotting of phospho-p44/42 MAPK); assay type: cell-based
# Method: Peptide […] (SEQ ID No: 1) was obtained as described in Example 1, BALB/c mouse fibroblast were purchased from American Type Culture Collection and propagated in a complete medium consisting of high glucose DMEM supplemented with 10% fetal calf serum, 1 mM sodium pyruvate, 1:50 MEM non-essential amino acids, 2 mM L-glutamine, 10 μg/ml gentamicin and 50 μM β-mercaptoethanol. Cells were grown in 10 cm culture dishes at 5% CO2 and 37° C. Cell passages were made at the 50-60% confluency. For cell detachment, 0.05% trypsin/EDTA was used with following centrifugation (470×g, 15 min) in 10-fold volume of washing medium containing 10% FCS to quench trypsin. Supernatant was discarded and the cell pellet was suspended in 10 ml of complete culture medium, then cell numbers were counted using hemocytometer before cells were used for experiments.
# Fibroblasts were cultured in 8-well culture plates, the examined peptide or cytokine TGF-β1 (positive control) solution, or equivalent volume of culture medium (negative control) were added into respective triplicate cultures. Cells were incubated in presence of the peptide […] SEQ ID No: 1 (10 μg/ml) or TGF-β1, or without any effector compound during 1 or 6 hours at 5% C02 and 37° C. At the time points indicated, cell were harvested, washed twice with PBS and lyzed using the cell extraction buffer in the presence of protease inhibitors during 30 min at 4° C. Extracts were cleared by centrifugation (14,000×g, 10 min, 4° C.). Protein concentration was measured using protein assay reagent (Pierce, 23225). Appropriate dilutions of extracts ([…] protein per a track) were then fractionated in 8% SDS-PAGE and then transferred onto PVDF-membrane (Amersham) for immune blotting. Targeted proteins were detected using antibodies specific to phospho-p44/42 MAPK (Cell Signaling, 4370) and GAPDH (Abcam ab8245). Protein bands were visualized and then measured their intensities using ImageJ soft-ware. Data were expressed as a value (pixels per a band) of ERK1, ERK2 or phospho-ERK1 and phospho-ERK2 normalized to a value of respective GAPDH-bands. Mean values+SD were calculated using the data of 3 independent runs.
# [5] = 1 hour after activation, peptide 10 μg/ml, TGF-β1 5 ng/ml, negative control 0.1+0.002
# [6] = 1 hour after activation, peptide 10 μg/ml, TGF-β1 5 ng/ml, negative control 0.4+0.01
# [7] = 6 hour time point, non-activated cultures 0.1+0.007
# [8] = 6 hours after activation, negative control 0.1+0.01
Substance,Antiviral efficacy (minimal compound concentration protecting 50% of the cells from death) [1] [µg/mL],Titre of induced interferon (inverse to the maximal dilution protecting 50% of the cells) [1],Antiviral efficacy (minimal compound concentration protecting 50% of the cells from death) [2] [µg/mL],Titre of induced interferon (inverse to the maximal dilution protecting 50% of the cells) [2] [U/ml],Antiviral efficacy (minimal compound concentration protecting 50% of the cells from death) [3] [µg/mL],Titre of induced interferon (inverse to the maximal dilution protecting 50% of the cells) [3] [U/ml],"immunostimulatory activity compared with the activity of HEP-1 peptide ([1]; Table 3, Girardi Heart cells)","phospho-ERK1 normalized value (band intensity normalized to GAPDH) [4, 5]","phospho-ERK2 normalized value (band intensity normalized to GAPDH) [4, 6]","phospho-ERK2 normalized value (band intensity normalized to GAPDH) [4, 7]","phospho-ERK1 normalized value (band intensity normalized to GAPDH) [4, 8]","immunostimulatory activity compared with the activity of HEP-1 peptide ([3]; Table 1, PLC/PRF/5 cells) [times]"
NH2_Arg-Glu-Thr-Val-Glu-Arg-Glu-Lys-Glu_COOH (H-RETVEREKE-OH) [HP6-14],0.006,163 840 U/ml,0.49,2048,0.78,1280,–,–,–,–,–,–
NH2_Gly-Glu-Lys-Lys-Arg-Arg-Glu-Thr-Val-Glu-Arg-Glu-Gly-Gly_COOH (H-GEKKRRETVEREGG-OH) [HP-V2],0.0015,655 360 U/ml,7.8,128,0.78,1280,the same,0.4+0.02,1.3+0.05,0.1+0.01,0.1+0.006,4
NH2_Thr-Glu-Lys-Lys-Arg COOH (H-TEKKR-OH) [HP1-5],0.0015,655 360 U/ml,0.49,2048,1.6,640,–,–,–,–,–,–
NH2_Thr-Glu-Lys-Lys-Arg-Arg-Glu-Thr-Val-Glu-Arg-Glu-Lys-Glu_COOH (H-TEKKRRETVEREKE-OH) [HEP-1],0.0015,655 360 U/ml,3.9,256,3.0,320,–,–,–,–,–,–
TGF-β1: cytokine TGF-β1 (positive control),–,–,–,–,–,–,–,0.5+0.02,1.9+0.1,0.35+0.02,0.3+0.02,–

# From patent US9682140B2, “Ezrin-derived peptides and pharmaceutical compositions thereof” (priority 2016, dated 2017)
